The source of these data is patent publication US20080293664A1, “Non-nucleoside reverse transcriptase inhibitors” (Roche Palo Alto LLC, priority 2007, published 2008).

In data set [1] the target is HIV-1 Reverse Transcriptase (Human immunodeficiency virus type 1 group M subtype B, UniProt P03366). Nature of the data set: HIV-1 Reverse Transcriptase Assay (RNA-dependent DNA polymerase activity, SPA). Type of data set: biochemical. Conditions: HIV-RT enzyme 1-3 nM, 30° C. for 30 min, 10% DMSO. As to the method: HIV-1 Reverse Transcriptase Assay
RNA-dependent DNA polymerase activity was measured using a biotinylated primer oligonucleotide and tritiated dNTP substrate. Newly synthesized DNA was quantified by capturing the biotinylated primer molecules on streptavidin coated Scintillation Proximity Assay (SPA) beads (Amersham). The sequences of the polymerase assay substrate were: 18nt DNA primer, 5′-Biotin/GTC CCT GTT CGG GCG CCA-3′; 47nt RNA template, 5′-GGGUCUCUCUGGUUAGACCACUCUAGCAGUGGCGCCCGAACAGGGAC-3′. The biotinylated DNA primer was obtained from the Integrated DNA Technologies Inc. and the RNA template was synthesized by Dharmacon. The DNA polymerase assay (final volume 50 μl) contained 32 nM biotinylated DNA primer, 64 nM RNA substrate, dGTP, dCTP, dTTP (each at 5 μM), 103 nM [^3H]-dATP (specific activity=[…]), in 45 mM Tris-HCl, pH 8.0, 45 mM NaCl, 2.7 mM Mg(CH3COO)2, 0.045% Triton X-100 w/v, 0.9 mM EDTA. The reactions contained 5 ul of serial compound dilutions in 100% DMSO for IC50 determination and the final concentrations of DMSO were 10%. Reactions were initiated by the addition of 30 μl of the HIV-RT enzyme (final concentrations of 1-3 nM). Protein concentrations were adjusted to provide linear product formation for at least 30 min of incubation. […] The beads were left to settle overnight and the SPA signals were counted in a 96-well top counter-NXT (Packard). […]

The subject of data set [2] is HXB2-strain of HIV in MT4 cells. Nature of the data set: Antiviral assay: protection of HIV-infected MT4 cells from cell death (MTT). The format is cell-based. Conditions: read-out: Antiviral Assay IC50. As to the method:
Antiviral Assay Method Anti-HIV antiviral activity was assessed using an adaptation of the method of Pawls et al. (J. Virol Methods 1988 20:309-321). The method is based on the ability of compounds to protect HIV-infected T lymphoblastoid cells (MT4 cells) from cell-death mediated by the infection. The endpoint of the assay was calculated as the concentration of compound at which the cell viability of the culture was preserved by 50% (‘50% inhibitory concentration’, IC50). The cell viability of a culture was determined by the uptake of soluble, yellow 3-[4,5-dimethylthiazol-2-yl]-2,5-diphenyltetrazolium bromide (MTT) and its reduction to a purple insoluble formazan salt. After solubilization, spectrophotometric methods were employed to measure the amount of formazan product. MT4 cells were prepared to be in logarithmic-phase growth and a total of 2×10^6 cells infected with the HXB2-strain of HIV at a multiplicity of 0.0001 infectious units of virus per cell in a total volume of between 200-500 microliters. […] When the formazan deposit was fully solubilized by further mixing, the absorbance (OD) of the cultures was measured at 540 nm and 690 nm wavelength (690 nm readings were used as blanks for artifacts between wells). The percent protection for each treated culture was then calculated from the equation: [formula] […]

Where a name gives a salt, the structure may show the parent alone. Read-outs that look alike come from different tables or passages of the source.

Usually melting point stands for the temperature, or range, at which the solid turns liquid. For orientation: IC50 means the point on the concentration scale where inhibition reaches its midpoint. `N#Cc1cc(Cl)cc(C(=O)c2cc(Cl)ccc2OCc2n[nH]c3ncccc23)c1` [Compound I-2, 3-Chloro-5-[5-chloro-2-(1H-pyrazolo[3,4-b]pyridin-3-ylmethoxy)-benzoyl]-benzonitrile] gave a melting point of 194.3 to 195.9 °C. In addition, the IC50 in data set [1] amounted to 24.4 nM. Further, in data set [2] (Human immunodeficiency virus 1, 120 h, MT4 cells infected with HXB2-strain of HIV, 5 days, MTT viability), the IC50 amounted to 3.7 nM.

As for `N#Cc1cc(Cl)cc(Oc2c(Cl)ccc(OCc3n[nH]c4ncccc34)c2F)c1` [Compound I-3, 3-Chloro-5-[6-chloro-2-fluoro-3-(1H-pyrazolo[3,4-b]pyridin-3-ylmethoxy)-phenoxy]-benzonitrile, trifluoroacetate salt], the IC50 in data set [1] worked out at 11 nM; in data set [2] (Human immunodeficiency virus 1, HXB2, MT4, 120 h), 8 nM.

`N#Cc1cc(Cl)cc(C(=O)c2c(CNc3n[nH]c4ncccc34)ccc(Br)c2F)c1` [Compound I-9]: the melting point lay in the range of 214 to 215 °C.
